Laboratory results published in publication PMC5817083, “Oligopeptide Targeting Sortase A as Potential Anti-infective Therapy for Staphylococcus aureus” (Frontiers in Microbiology, 2018).
Entries after “also recorded” stand apart in the source; their conditions may differ. Marks after values point to notes of the source that are not given here.

Assays:
SrtAN114A [1] = target: T1, SrtAN114A (Staphylococcus aureus, UniProt Q2FV99, N114A); test: SrtA activity inhibition assay, mutant SrtAN114A; format: biochemical; settings: Figure 5C
T1 construct: GST (cleaved yes); made in house; host or cells: Escherichia coli BL21 (DE3)
Procedure: (§1) The procedures followed for expression and purification of the mutant proteins (SrtAN114A, SrtAC184A, and SrtAR197A) were identical to those followed for the wild-type protein (SrtAΔN59).
(§2) Site-directed mutagenesis for SrtAN114A, SrtAC184A, and SrtAR197A was conducted using a recombinant vector encoding SrtAΔN59 with a QuickChange Site-Directed Mutagenesis Kit (Stratagene, La Jolla, CA, United States). The primer pairs for these three mutations were as follows: N114A forward, 5′-[…]-3′; N114A reverse, 5′-[…]-3′; C184A forward, 5′-[…]-3′; C184A reverse, 5′-[…]-3′; R197A forward, 5′-[…]-3′; and R197A reverse, 5′-[…]-3′.
(§3) The inhibitory effect of the oligopeptide against SrtA and its mutants activity was determined as previously described in 96-well black plates (PerkinElmer, Boston, MA, United States) ([Wang et al., 2015c]). Briefly, 100 μL of purified SrtA ([…]) was preincubated with 100 μL of increasing concentrations of the oligopeptide (3.125–25 μM) in reaction buffer at 37°C for 20 min. The model fluorescent peptide substrate Dabcyl-[…]-Edans (GL Biochem, Shanghai, China) (final concentration of 10 μM) was added to the reaction system, followed by incubation at 37°C for 1 h. Fluorescence intensity was measured at […] wavelengths of 350 and 520 nm, respectively. The experiments were repeated three times independently for each sample.

SrtAC184A [2] = target: T2, SrtAC184A (Staphylococcus aureus, UniProt Q2FV99, C184A); test: SrtA activity inhibition assay, mutant SrtAC184A; format: biochemical; settings: Figure 5C
T2 construct: GST (cleaved yes); made in house; host or cells: Escherichia coli BL21 (DE3)
Procedure: as §1, §2, §3

SrtAR197A [3] = target: T3, SrtAR197A (Staphylococcus aureus, UniProt Q2FV99, R197A); test: SrtA activity inhibition assay, mutant SrtAR197A; format: biochemical; settings: Figure 5C
T3 construct: GST (cleaved yes); made in house; host or cells: Escherichia coli BL21 (DE3)
Procedure: as §1, §2, §3

SrtAWT = target: T4, SrtAWT (Staphylococcus aureus, UniProt Q2FV99); test: Fluorescence spectroscopy quenching binding constant, SrtAWT
T4 construct: GST (cleaved yes); made in house; host or cells: Escherichia coli BL21 (DE3)
Text: (§4) In this study, the fluorescence quenching method was used to measure the binding constants (KA) of ligands to proteins. A 280-nm excitation wavelength with 5-nm band pass and a 345-nm emission wavelength with 10-nm band pass were used for the measurements. Details of the measurement procedures have been described previously ([Bandyopadhyay et al., 2002]; [Jurasekova et al., 2009]).

SrtAN114A [4] = target: T1, SrtAN114A; test: Fluorescence spectroscopy quenching binding constant, SrtAN114A
Text: as §4

SrtAC184A [5] = target: T2, SrtAC184A; test: Fluorescence spectroscopy quenching binding constant, SrtAC184A
Text: as §4

SrtAR197A [6] = target: T3, SrtAR197A; test: Fluorescence spectroscopy quenching binding constant, SrtAR197A
Text: as §4

MRSA strain USA 300 = test: Broth microdilution MIC; format: cell-based, Staphylococcus aureus; settings: for anti-S. aureus (bacteriostatic) activity: at concentrations that inhibit SrtA activity
Procedure: (§5) The broth microdilution method was used to determine the minimum inhibitory concentration (MIC) of the oligopeptide against the MRSA strain USA 300 according to the NCCLS guideline M31-A2. For the growth curve experiment, an overnight bacterial culture was inoculated in fresh TSB (1:100) with the indicated concentrations of the oligopeptide, and the optical density (OD) at 600 nm was measured for each sample at 1-h intervals.

S. aureus USA 300 = test: Growth curve experiment (OD 600 nm); format: cell-based, Staphylococcus aureus; settings: USA 300 in TSB, oligopeptide 3.125–25 μM
Procedure: as §5

[7] = system: surface protein A display on S. aureus; test: Immunofluorescence assay of surface protein A; format: cell-based, Staphylococcus aureus; settings: S. aureus cultured with oligopeptide 37°C 2.5 h, confocal microscopy
Procedure: Detection of surface protein A by immunofluorescence analysis was performed as described previously ([Chen et al., 2014]). Briefly, S. aureus were cultured in TSB with or without the oligopeptide at 37°C for 2.5 h, pelleted by centrifugation (3,000 × g, 10 min), washed three times with PBS, blocked with 2% BSA for 1 h at 37°C, stained with fluorescein isothiocyanate (FITC)-labeled goat anti-rabbit IgG for 2 h at 37°C, and observed under a laser scanning confocal microscope (Olympus, Tokyo, Japan).

[8] = system: S. aureus USA 300 adherence to bovine fibronectin; test: Fibronectin-binding assay; format: cell-based, Staphylococcus aureus; settings: USA 300 treated with oligopeptide, crystal violet OD570 nm
Procedure: Ninety-six-well flat-bottom polystyrene plates were coated with 100 μL of 2 μg/mL fibronectin in PBS (fibronectin from bovine plasma; Sigma–Aldrich, St. Louis, MO, United States) per well and incubated at 4°C overnight. Each well was washed three times with PBS and blocked with 5% BSA in PBS at 37°C for 2 h. An overnight bacterial culture was inoculated in fresh TSB (1:100, OD600 nm ≈ 0.2) with the indicated concentrations of the oligopeptide and incubated until the OD600 nm reached 0.5. Then, the cells were centrifuged at 5000 × g for 10 min and resuspended in PBS to an OD600 nm of 1.0. One hundred microliters of bacterial suspension were added to each fibronectin-coated plate well as described above, and the plates were incubated at 37°C for 2 h. After removal of the cell suspension, 25% (v/v) formaldehyde was added to fix S. aureus. Then, the bacteria attached to fibronectin were stained with 100 μL of 0.4% crystal violet dye for 20 min at 37°C after being washed once with PBS. Following removal of the supernatant, adherence was quantified by measuring the OD570 nm for each well. USA 300 without the oligopeptide was used as a positive control, and PBS was used as a negative control.

[9] = system: S. aureus invasion into J774 cells; test: Invasion assay in J774 cells; format: cell-based, Staphylococcus aureus; settings: 25 μM oligopeptide, infection 1 h, CFU of lysed cells
Procedure: J774 cells were adjusted to 4 × 10^5 per glass slide in 24-well plates in Dulbecco’s […] essential medium (DMEM) supplemented with 10% fetal bovine serum (FBS) and cultured in an incubator at 5% CO2 and 37°C overnight. An overnight bacterial culture was inoculated in fresh TSB (1:100, OD600 nm ≈ 0.2) with the indicated concentrations of the oligopeptide and incubated until the OD600 nm reached 1.0. Then, the bacteria were resuspended in DMEM containing 10% FBS at a concentration of 1 × 10^8 CFU/mL, and 1 mL of the resuspension was added to each well for infection at 37°C for 1 h. Invasion was terminated by incubation with 300 μg/mL gentamicin for 30 min. After three washes with PBS, coverslips were placed in 0.2% Triton X-100 with vigorous vortexing, and the diluted lysates were plated onto TSB agar plates to enumerate the number of bacteria associated with each sample.

[10] = system: S. aureus-induced mastitis; test: Mouse mastitis model of S. aureus infection; format: in vivo, BALB/c mice; settings: for protection against S. aureus-induced mastitis: mouse model
Procedure: BALB/c mice (from the Experimental Animal Center of Jilin University) were obtained and housed under specific pathogen-free conditions. All animal studies were approved by and conducted in accordance with the guidelines of the Animal Welfare and Research Ethics Committee of Jilin University. An overnight bacterial culture was inoculated in fresh TSB broth (1:100, OD600 nm ≈ 0.2) and incubated until the OD600 nm reached 0.8. Cells were harvested by centrifugation at 3,000 × g for 10 min, washed three times with PBS, and resuspended in PBS to a concentration of 1 × 10^9 CFU/mL for the mastitis infection experiment.
For establishment of a mastitis model of infection, lactating BALB/c mice, 10–12 weeks of age and weighing 30–32 g, were anesthetized using sodium pentobarbital and infected by injecting the canal glands with 50 μL of staphylococcal suspension per breast. The infected mice were administered 50 mg/kg of the oligopeptide subcutaneously at the time of infection and then at 12-h intervals. The control mice received an equal volume of PBS at the same time points. To evaluate the pathological correlates of mastitis, mammary gland tissues isolated from sacrificed mice at 48 h post-infection were fixed in 4% paraformaldehyde, stained with hematoxylin and eosin, and visualized by light microscopy. Furthermore, additional mammary gland tissues from the mice sacrificed at 48 h post-infection were homogenized in PBS containing 2% Triton X-100, after which they were appropriately diluted and inoculated onto TSB agar plates for assessment of the bacterial burden. The levels of the inflammatory cytokines IL-1β, IL-6, and TNF-α in the supernatants were measured using ELISA kits.

SrtA (SrtAΔN59) = target: T5, SrtA (SrtAΔN59) (Staphylococcus aureus, UniProt Q2FV99); test: SrtA activity inhibition assay (fluorescent substrate Dabcyl-[…]-Edans); format: biochemical; settings: purified SrtA preincubated with oligopeptide 3.125–25 μM, 37°C 20 min; substrate 10 μM, 1 h
T5 construct: GST (cleaved yes); made in house; host or cells: Escherichia coli BL21 (DE3)
Procedure: An Escherichia coli BL21 (DE3) strain harboring a recombinant vector encoding SrtA∆N59 was used, as described previously ([Wang et al., 2015c]). Cells were cultured overnight at 16°C with 1 mM isopropyl-β-D-thiogalactopyranoside (IPTG, Invitrogen, Carlsbad, CA, United States) in TSB containing ampicillin to induce SrtA expression until the OD600 reached 0.6 ∼ 0.8. Then, the cells were harvested by centrifugation at 5,500 × g for 10 min, resuspended in reaction buffer (50 mM Tris-HCl, 5 mM CaCl2, and 150 mM NaCl, pH 7.5) and lysed by sonication. […] The bound GST-tagged proteins were incubated with Precision Protease at 4°C overnight prior to elution with reaction buffer. Purified SrtA proteins were concentrated to […] via centrifugal filtration (Millipore, Bedford, MA, United States) and subsequently analyzed by SDS-PAGE.
The inhibitory effect of the oligopeptide against SrtA and its mutants activity was determined as previously described in 96-well black plates (PerkinElmer, Boston, MA, United States) ([Wang et al., 2015c]). Briefly, 100 μL of purified SrtA ([…]) was preincubated with 100 μL of increasing concentrations of the oligopeptide (3.125–25 μM) in reaction buffer at 37°C for 20 min. […] Fluorescence intensity was measured at […] wavelengths of 350 and 520 nm, respectively. […]

Substance | sensitivity of SrtAN114A to oligopeptide-induced inhibition compared to wild-type SrtA (SrtAN114A [1]) | sensitivity of SrtAC184A to oligopeptide-induced inhibition compared to wild-type SrtA (SrtAC184A [2]) | sensitivity of SrtAR197A to oligopeptide-induced inhibition compared to wild-type SrtA (SrtAR197A [3]) | binding constant KA (SrtAWT) | binding constant KA (SrtAN114A [4]) | binding constant KA (SrtAC184A [5]) | binding constant KA (SrtAR197A [6]) | MIC (MRSA strain USA 300; MRSA USA 300, broth microdilution) | anti-S. aureus (bacteriostatic) activity (MRSA strain USA 300) | anti-S. aureus (bacteriostatic) activity (MRSA strain USA 300; listed as oligopeptide) | growth of S. aureus (S. aureus USA 300) | display (anchoring) of surface protein A, binding of FITC-conjugated IgG [7] | adherence to fibronectin [8] | invasion of S. aureus into J774 cells [9] | inflammatory responses and pathological changes of mammary gland tissues ([10]; lactating BALB/c mice, 50 mg/kg at infection then 12-h intervals, 48 h post-infection, vs PBS, listed as oligopeptide, 50 mg/kg) | levels of cytokines IL-1β, IL-6 and TNF-α in mammary gland tissues ([10]; lactating BALB/c mice, 50 mg/kg, 48 h post-infection, ELISA) | bacterial burden in mammary gland tissues ([10]; lactating BALB/c mice, 50 mg/kg, 48 h post-infection, vs PBS-treated control) | protection against S. aureus-induced mastitis [10] | protection against S. aureus-induced mastitis ([10]; listed as oligopeptide) | IC50 (SrtA (SrtAΔN59))
LPRDA | significantly decreased | significantly decreased | significantly decreased | 6.6 ± 1.3 (1 × 10^4) L⋅mol^-1 | 4.2 ± 1.1 (1 × 10^4) L⋅mol^-1 | 5.1 ± 1.2 (1 × 10^4) L⋅mol^-1 | 5.0 ± 1.4 (1 × 10^4) L⋅mol^-1 | greater than 200 μM | without anti-S. aureus activity | no anti-Staphylococcus aureus activity; also recorded: no bacteriostatic activity | not visibly affected | significantly hindered the binding of FITC-conjugated IgG; also recorded: decreased | decreased adherence | significant anti-invasive activity | effectively alleviated; also recorded: Significant alleviation; also recorded: remarkably alleviated | significantly reduced | significant decrease | conferred effective protection | provided protection | –
LPRDA (PEG2000-LPRDA-NH2) | – | – | – | – | – | – | – | – | – | – | – | – | – | – | – | – | – | – | – | 10.6 µM
